First: CCn1c(C)c(C(c2ccco2)S(=O)(=O)c2ccc(C)cc2)c2ccccc21 (stereo not given)
Second: Cc1cccc(-c2n[nH]cc2-c2ccnc(-c3ccc(OCc4cn(C)cn4)cc3)c2)n1
The melting point of the first is lower: 99.8 to 105 °C for the first, 191 °C for the second.

First: O=C(O)CCC(Cc1ccc(Cl)c(Cl)c1)(C(=O)C=Cc1ccc(Cl)cc1)c1ccccc1 (stereo not given)
Second: CCNC1(c2ccccc2Cl)C(=O)N(Cc2ccc(C(=O)NC(C)(CO)CO)cc2)c2ccc(Cl)cc21 (stereo not given)
The melting point of the first is higher: 155 to 156 °C for the first, 138 to 141 °C for the second.

First: Cc1ccc(C(=O)Nc2ccc(CN3CCCCC3)c(C(F)(F)F)c2)cc1Br
Second: Cc1ccc(NC(=O)NCc2cccc3c2CN(C2CCC(=O)NC2=O)C3=O)cc1C (stereo not given)
The melting point of the first is lower: 151 to 153 °C for the first, over 260 °C for the second.

First: C=CCN1C(=O)NC(C)=C(C(=O)OC(C)C)C1c1cccc([N+](=O)[O-])c1 (stereo not given)
Second: Cc1cccc2c(/C=C/C(=O)O)cc(C(C)C)c(O)c12
The melting point of the first is higher: 172 to 174 °C for the first, 122 to 123 °C for the second.

Compared with `COc1ccc(NC(=O)N(Cc2ccccn2)C2CCCCCC2)c(NC(=O)c2cc(C(C)(C)C)c(O)c(C(C)(C)C)c2)c1`, `Cc1c(NC(=O)c2ccc(OC[C@@H]3CCCO3)cc2)ccc2cc(CNC3CCC3)cnc12` is lower in melting point: 165 to 166 °C for the first, 142 to 144 °C for the second.

First: CN(C)C(=O)N1CCSC1c1ccccc1OCCN1CCN(c2cccc(F)c2)CC1 (stereo not given)
Second: CSC1C(=O)Nc2c(Oc3ccccc3N)cccc21 (stereo not given)
The melting point of the first is lower: 90.5 to 93 °C for the first, 168 to 170 °C for the second.

Compared with `CC(C)(C)c1nc(C#N)nc(C(C)(C)C)c1O`, `C[C@@H](Oc1cccc(F)c1N)[C@H](NC(=O)OC(C)(C)C)C(=O)O` is lower in melting point: 203 to 205 °C for the first, 158 to 160 °C for the second.

First: CON1CCC2(CC1)NC(=O)C(c1cc(C)ccc1C)=C2O
Second: NC(=S)c1cccc2c1CCCC2=O
The melting point of the first is lower: 176 to 177 °C for the first, 200 to 205 °C for the second.

First: N#Cc1cc(-c2c(-c3ccccc3)nn3ccccc23)c[nH]c1=O
Second: O=C(O)COc1nn(-c2ccccc2)cc1-c1ccccc1
The melting point of the first is higher: 312 to 314 °C for the first, 172 °C for the second.

First: CC(C)=CC(O)C(Br)(Br)Br (stereo not given)
Second: CC1(C)Oc2c(ccc3oc(C(=O)O)cc(=O)c23)-c2ccc(Cl)cc21
The melting point of the first is lower: 81.5 to 82 °C for the first, 257 to 258 °C for the second.

First: N#CC(c1ccccc1)N1CCN(C2CCCCC2)CC1 (stereo not given)
Second: CC(=O)NC[C@H]1CN(c2ccc(N3CCC(n4nnc(N5CCN(C)CC5)n4)CC3)c(F)c2)C(=O)O1
The melting point of the first is lower: 79 to 81 °C for the first, 174 to 176 °C for the second.

`O=C1C=C(Nc2cc(F)ccc2F)CCN1` and `O=C(O)C1=Cc2cc(-c3ccc(OC(F)(F)F)cc3)ccc2OCC1` cannot be ordered by melting point: 252 to 255 °C for the first, 252 to 254 °C for the second.

Compared with `O=S(=O)(NCCCCn1ccnc1)c1ccc(Br)cc1`, `CCOC(=O)c1cc2cc(NS(=O)(=O)CCCCl)ccc2[nH]1` is higher in melting point: 158 to 159 °C for the first, 195 to 196 °C for the second.

First: COC(=O)C=Cc1cncc2ccccc12
Second: Clc1nc(-c2ccccn2)[nH]c1I
The melting point of the first is lower: 79 to 80 °C for the first, 188 to 189 °C for the second.

First: CC1(C)OC(=O)Nc2ccc(-c3cc(F)cc(-c4ccsc4)c3)cc21
Second: O=c1ccc(-c2ccncn2)c[nH]1
The melting point of the first is lower: 200 to 203 °C for the first, over 250 °C for the second.

Compared with `O=C(O)CCC(=O)Nc1ccc(Nc2ccccc2)cc1`, `Nc1ccc(CC(NC(=O)C(c2ccccc2)c2ccccc2)c2ccccc2)cc1` (stereo not given) is lower in melting point: 175 to 176 °C for the first, 161 to 163 °C for the second.

First: N#CCOc1ccc2cc(Br)ccc2c1Br
Second: CCOc1cc(OCc2cn(-c3ccc(C(F)(F)F)cn3)nc2C)ccc1CCC(=O)O
The melting point of the first is lower: 130 to 132 °C for the first, 151 to 152 °C for the second.

First: NC(=O)c1ccnc(CCCCCCOCCCCCCBr)c1
Second: CCCCCCCCCCCCCCCCCCOc1cc(C(N)=O)cc([N+](=O)[O-])c1
The melting point of the first is lower: 73 to 75 °C for the first, 117 to 120 °C for the second.

First: Cc1cscc1NC(=S)Nc1cc(Cl)c(Cl)cc1N
Second: CCOC(=O)c1c(CN(CC)CC)nc2cc(OC)c(OC)cc2c1-c1ccc(OC)c(OC)c1
The melting point of the first is higher: 310 to 320 °C for the first, 130 to 131 °C for the second.

First: CC1CC2C3CC(F)C4=CC(=O)C=CC4(C)C3C(=O)CC2(C)C1C(=O)COC(=O)C(C)(C)C (stereo not given)
Second: CCCc1nn(-c2ccc(C(F)(F)F)cn2)cc1CCCOc1c(CC(=O)O)cnn1C
The melting point of the first is higher: 226 to 227 °C for the first, 136 to 138 °C for the second.
